According to the NIST ThermoML archive (doi:10.1021/je100638g):

Experiments:
[1] = Molar enthalpy of transition or fusion; conditions: Crystal; DSC
[2] = for mass density / viscosity: 100 kPa, Liquid
[3] = xn = mol fraction of the nth substance listed; conditions: 100 kPa, Liquid, x2 = 0.249

CCCc1ccc[n+](C)c1.F[P-](F)(F)(F)(F)F [1-methyl-3-propylpyridinium hexafluorophosphate]
Conditions | Molar enthalpy of transition or fusion [kcal/mol]
[1] | 3.59

[2]
Conditions | mass density [kg/m3] | viscosity [mPa·s]
318.15 K | 1365.4 | 132.87
323.15 K | 1361.3 | 102.17
328.15 K | 1357.3 | 79.97
333.15 K | 1353.2 | 63.67
338.15 K | 1349.2 | 51.52
343.15 K | 1345.2 | 42.29
348.15 K | 1341.2 | 35.16
353.15 K | 1337.2 | 29.58
358.15 K | 1333.2 | 25.15
363.15 K | 1329.2 | 21.59

Conditions | Normal melting temperature [°C]
[2], Crystal, DTA | 38.1

CCCc1ccc[n+](C)c1.F[P-](F)(F)(F)(F)F [1-methyl-3-propylpyridinium hexafluorophosphate] + O
[3]
Conditions | mass density [kg/m3] | viscosity [mPa·s]
303.15 K | 1362.5 | 73.39
308.15 K | 1358.3 | 57.55
313.15 K | 1354 | 45.98
318.15 K | 1349.8 | 37.36
323.15 K | 1345.6 | 30.81
328.15 K | 1341.4 | 25.75
333.15 K | 1337.2 | 21.76
338.15 K | 1333.1 | 18.6
343.15 K | 1328.9 | 16.04
348.15 K | 1324.8 | 13.98
353.15 K | 1320.7 | 12.28
358.15 K | 1316.6 | 10.86
363.15 K | 1312.5 | 9.677
